Assays:
METTL14 = biological target: T1, METTL14 (Homo sapiens, UniProt Q9HCE5); assay: Immunoblotting (Western blot) degradation of METTL14 in MV4-11 cells; assay type: cell-based; conditions: MV4-11 cells, 24 h; for % reduction in MV4-11 cells, 0.3 µM, METTL14 / % reduction in MV4-11 cells, 1.0 µM, METTL14 / % degradation in MV4-11 cells, 0.3 µM, METTL14 / % degradation in MV4-11 cells, 1.0 µM, METTL14: immunoblotting; for % reduction in MV4-11 cells, 0.3 µM, METTL14 / % reduction in MV4-11 cells, 1.0 µM, METTL14: nd = no degradation
T1 construct: Following treatment, total cellular proteins were extracted using RIPA buffer; endogenous in cells; host or cells: MV4-11 (MV4.11) human AML cells, ATCC
T1 sequence (Q9HCE5 whole entry): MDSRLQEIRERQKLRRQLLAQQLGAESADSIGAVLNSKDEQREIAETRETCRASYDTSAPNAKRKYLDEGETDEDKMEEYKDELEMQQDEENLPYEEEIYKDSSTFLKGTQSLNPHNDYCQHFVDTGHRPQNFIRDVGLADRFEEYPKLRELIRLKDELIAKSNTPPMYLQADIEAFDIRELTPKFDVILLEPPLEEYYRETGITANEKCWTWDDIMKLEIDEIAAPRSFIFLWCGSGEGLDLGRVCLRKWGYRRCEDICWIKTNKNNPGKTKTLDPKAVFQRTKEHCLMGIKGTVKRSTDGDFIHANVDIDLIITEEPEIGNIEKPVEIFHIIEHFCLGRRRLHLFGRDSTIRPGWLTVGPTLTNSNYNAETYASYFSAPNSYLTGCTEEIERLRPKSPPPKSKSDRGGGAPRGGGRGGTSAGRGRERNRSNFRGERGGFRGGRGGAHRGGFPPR
T1 sequence (Q86U44 2-580 partner): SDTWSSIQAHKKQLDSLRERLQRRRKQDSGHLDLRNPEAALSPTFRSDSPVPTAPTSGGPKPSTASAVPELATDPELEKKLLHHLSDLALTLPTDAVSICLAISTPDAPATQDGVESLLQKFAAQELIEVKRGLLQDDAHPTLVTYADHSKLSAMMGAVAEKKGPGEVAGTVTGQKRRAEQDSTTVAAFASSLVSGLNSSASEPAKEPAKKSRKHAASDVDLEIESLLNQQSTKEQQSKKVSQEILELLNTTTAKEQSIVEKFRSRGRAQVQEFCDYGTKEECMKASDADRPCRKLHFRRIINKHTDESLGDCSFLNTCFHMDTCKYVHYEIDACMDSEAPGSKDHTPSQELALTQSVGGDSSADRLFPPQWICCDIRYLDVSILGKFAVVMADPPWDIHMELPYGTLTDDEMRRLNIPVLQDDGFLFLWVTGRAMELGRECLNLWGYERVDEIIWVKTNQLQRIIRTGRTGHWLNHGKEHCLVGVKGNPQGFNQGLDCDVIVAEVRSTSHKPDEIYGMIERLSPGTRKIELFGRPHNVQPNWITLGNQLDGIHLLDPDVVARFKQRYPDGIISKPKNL
Method: (§1) All cell lines were maintained under standard conditions in a humidified atmosphere at 37 °C with 5% CO₂.
(§2) Western Blot Analysis: Following treatment, total cellular proteins were extracted using RIPA buffer (Auragene, Changsha, China). […] After washing, membranes were incubated with horseradish peroxidase (HRP)-conjugated secondary antibodies (anti-rabbit or anti-mouse IgG; 1:5000) for 2 hours at room temperature. Protein bands were visualized using an enhanced chemiluminescence (ECL) detection kit (Amersham Pharmacia), following the manufacturer's protocol. Band intensities were quantified using ImageJ software and normalized to ACTIN as a loading control. Data was analyzed using GraphPad Prism 9.

METTL3 = METTL3 (Homo sapiens, UniProt Q86U44); assay: Immunoblotting (Western blot) degradation of METTL3 in MV4-11 cells; assay type: cell-based; parameters: Following treatment, total cellular proteins were extracted using RIPA buffer; endogenous in cells; host or cells: MV4-11 (MV4.11) human AML cells, ATCC; conditions: MV4-11 cells, 24 h; for % reduction in MV4-11 cells, 0.3 µM, METTL3 / % reduction in MV4-11 cells, 1.0 µM, METTL3 / % degradation in MV4-11 cells, 0.3 µM, METTL3 / % degradation in MV4-11 cells, 1.0 µM, METTL3: immunoblotting; for % reduction in MV4-11 cells, 0.3 µM, METTL3 / % reduction in MV4-11 cells, 1.0 µM, METTL3: nd = no degradation
Sequence of METTL3 (Q86U44 2-580 limits assumed): as the sequence (Q86U44 2-580 partner) above
Sequence of METTL3 (Q9HCE5 whole entry partner): as the sequence (Q9HCE5 whole entry) above
Method: as §1, §2

| Structure (SMILES) | % reduction in MV4-11 cells, 0.3 µM, METTL14 (METTL14) [%] | % reduction in MV4-11 cells, 1.0 µM, METTL14 (METTL14) [%] | % reduction in MV4-11 cells, 0.3 µM, METTL3 (METTL3) [%] | % reduction in MV4-11 cells, 1.0 µM, METTL3 (METTL3) [%] | % degradation in MV4-11 cells, 0.3 µM, METTL14 (METTL14) [%] | % degradation in MV4-11 cells, 1.0 µM, METTL14 (METTL14) [%] | % degradation in MV4-11 cells, 0.3 µM, METTL3 (METTL3) [%] | % degradation in MV4-11 cells, 1.0 µM, METTL3 (METTL3) [%] | also measured |
| --- | --- | --- | --- | --- | --- | --- | --- | --- | --- |
| CC1(C)CCN(Cc2cc(F)c(N3CC(=O)NC4(CCN(c5cc(NCCCCC(=O)N6CCN(c7ccc8c(c7)C(=O)N(C7CCC(=O)NC7=O)C8=O)CC6)ncn5)CC4)C3)cc2F)CC1 (stereo not shown) [Compound 4a, 5-(4-(5-((6-(4-(4-((4,4-dimethylpiperidin-1-yl)methyl)-2,5-difluorophenyl)-2-oxo-1,4,9-triazaspiro[5.5]undecan-9-yl)pyrimidin-4-yl)amino)pentanoyl)piperazin-1-yl)-2-(2,6-dioxopiperidin-3-yl)isoindoline-1,3-dione] | 6 | 27 | 14 | 47 |  |  |  |  |  |
| CC1(C)CCN(Cc2cc(F)c(N3CC(=O)NC4(CCN(c5cc(NCCCCCC(=O)N6CCN(c7ccc8c(c7)C(=O)N(C7CCC(=O)NC7=O)C8=O)CC6)ncn5)CC4)C3)cc2F)CC1 (stereo not shown) [Compound 4b, 5-(4-(6-((6-(4-(4-((4,4-dimethylpiperidin-1-yl)methyl)-2,5-difluorophenyl)-2-oxo-1,4,9-triazaspiro[5.5]undecan-9-yl)pyrimidin-4-yl)amino)hexanoyl)piperazin-1-yl)-2-(2,6-dioxopiperidin-3-yl)isoindoline-1,3-dione] | 36 | 58 | 45 | 56 |  |  |  |  |  |
| CC1(C)CCN(Cc2cc(F)c(N3CC(=O)NC4(CCN(c5cc(NCCCCCCC(=O)N6CCN(c7ccc8c(c7)C(=O)N(C7CCC(=O)NC7=O)C8=O)CC6)ncn5)CC4)C3)cc2F)CC1 (stereo not shown) [Compound 4c, 5-(4-(7-((6-(4-(4-((4,4-dimethylpiperidin-1-yl)methyl)-2,5-difluorophenyl)-2-oxo-1,4,9-triazaspiro[5.5]undecan-9-yl)pyrimidin-4-yl)amino)heptanoyl)piperazin-1-yl)-2-(2,6-dioxopiperidin-3-yl)isoindoline-1,3-dione] | 46 | 61 | 43 | 62 |  |  |  |  |  |
| CC1(C)CCN(Cc2cc(F)c(N3CC(=O)NC4(CCN(c5cc(NCCCCCCCC(=O)N6CCN(c7ccc8c(c7)C(=O)N(C7CCC(=O)NC7=O)C8=O)CC6)ncn5)CC4)C3)cc2F)CC1 (stereo not shown) [Compound 4d, 5-(4-(8-((6-(4-(4-((4,4-dimethylpiperidin-1-yl)methyl)-2,5-difluorophenyl)-2-oxo-1,4,9-triazaspiro[5.5]undecan-9-yl)pyrimidin-4-yl)amino)octanoyl)piperazin-1-yl)-2-(2,6-dioxopiperidin-3-yl)isoindoline-1,3-dione] | 51 | 67 | 52 | 68 |  |  |  |  |  |
| CC1(C)CCN(Cc2cc(F)c(N3CC(=O)NC4(CCN(c5cc(NCCCCCCCCC(=O)N6CCN(c7ccc8c(c7)C(=O)N(C7CCC(=O)NC7=O)C8=O)CC6)ncn5)CC4)C3)cc2F)CC1 (stereo not shown) [Compound 4e, 5-(4-(9-((6-(4-(4-((4,4-dimethylpiperidin-1-yl)methyl)-2,5-difluorophenyl)-2-oxo-1,4,9-triazaspiro[5.5]undecan-9-yl)pyrimidin-4-yl)amino)nonanoyl)piperazin-1-yl)-2-(2,6-dioxopiperidin-3-yl)isoindoline-1,3-dione] | 39 | 53 | 38 | 52 |  |  |  |  |  |
| CC1(C)CCN(Cc2cc(F)c(N3CC(=O)NC4(CCN(c5cc(NCCCCCCC(=O)N6CCN(c7ccc8c(c7)CN(C7CCC(=O)NC7=O)C8=O)CC6)ncn5)CC4)C3)cc2F)CC1 (stereo not shown) [Compound 4g, 3-(5-(4-(7-((6-(4-(4-((4,4-dimethylpiperidin-1-yl)methyl)-2,5-difluorophenyl)-2-oxo-1,4,9-triazaspiro[5.5]undecan-9-yl)pyrimidin-4-yl)amino)heptanoyl)piperazin-1-yl)-1-oxoisoindolin-2-yl)piperidine-2,6-dione] | 0 | 34 | 9 | 25 |  |  |  |  |  |
| CC1(C)CCN(Cc2cc(F)c(N3CC(=O)NC4(CCN(c5cc(NCCCCCCCC(=O)N6CCN(c7ccc8c(c7)CN(C7CCC(=O)NC7=O)C8=O)CC6)ncn5)CC4)C3)cc2F)CC1 (stereo not shown) [Compound 4h, 3-(5-(4-(8-((6-(4-(4-((4,4-dimethylpiperidin-1-yl)methyl)-2,5-difluorophenyl)-2-oxo-1,4,9-triazaspiro[5.5]undecan-9-yl)pyrimidin-4-yl)amino)octanoyl)piperazin-1-yl)-1-oxoisoindolin-2-yl)piperidine-2,6-dione] | 40 | 64 | 46 | 69 |  |  |  |  |  |
| CC1(C)CCN(Cc2cc(F)c(N3CC(=O)NC4(CCN(c5cc(NCCCCCCCCC(=O)N6CCN(c7ccc8c(c7)CN(C7CCC(=O)NC7=O)C8=O)CC6)ncn5)CC4)C3)cc2F)CC1 (stereo not shown) [Compound 4i, 3-(5-(4-(9-((6-(4-(4-((4,4-dimethylpiperidin-1-yl)methyl)-2,5-difluorophenyl)-2-oxo-1,4,9-triazaspiro[5.5]undecan-9-yl)pyrimidin-4-yl)amino)nonanoyl)piperazin-1-yl)-1-oxoisoindolin-2-yl)piperidine-2,6-dione] | 54 | 72 | 52 | 73 |  |  |  |  |  |
| CN1C(=O)CCC(N2Cc3cc(N4CCN(C(=O)CCCCCCCCCNc5cc(N6CCC7(CC6)CN(c6cc(F)c(CN8CCC(C)(C)CC8)cc6F)CC(=O)N7)ncn5)CC4)ccc3C2=O)C1=O (stereo not shown) [Compound 4k, 3-(5-(4-(10-((6-(4-(4-((4,4-dimethylpiperidin-1-yl)methyl)-2,5-difluorophenyl)-2-oxo-1,4,9-triazaspiro[5.5]undecan-9-yl)pyrimidin-4-yl)amino)decanoyl)piperazin-1-yl)-1-oxoisoindolin-2-yl)-1-methylpiperidine-2,6-dione] |  |  |  |  |  |  |  |  | degradation of METTL14 at 1 µM (in words) (METTL14; 1 µM, Fig. 4A right): not degraded; degradation of METTL14 (in words) (METTL14; Table 1 screening): did not induce degradation; degradation of METTL3 at 1 µM (in words) (METTL3; 1 µM, Fig. 4A right): not degraded; degradation of METTL3 (in words) (METTL3; Table 1 screening): did not induce degradation |
| CNc1cc(N2CCC3(CC2)CN(c2cc(F)c(CN4CCC(C)(C(=O)NCCCCNc5cccc6c5C(=O)N(C5CCC(=O)NC5=O)C6=O)CC4)cc2F)CC(=O)N3)ncn1 (stereo not shown) [Compound 5a, 1-(2,5-difluoro-4-(9-(6-(methylamino)pyrimidin-4-yl)-2-oxo-1,4,9-triazaspiro[5.5]undecan-4-yl)benzyl)-N-(4-((2-(2,6-dioxopiperidin-3-yl)-1,3-dioxoisoindolin-4-yl)amino)butyl)-4-methylpiperidine-4-carboxamide] |  |  |  |  | 8 | 21 | 33 | 52 |  |
| CNc1cc(N2CCC3(CC2)CN(c2cc(F)c(CN4CCC(C)(C(=O)NCCCCCCNc5cccc6c5C(=O)N(C5CCC(=O)NC5=O)C6=O)CC4)cc2F)CC(=O)N3)ncn1 (stereo not shown) [Compound 5b, 1-(2,5-difluoro-4-(9-(6-(methylamino)pyrimidin-4-yl)-2-oxo-1,4,9-triazaspiro[5.5]undecan-4-yl)benzyl)-N-(6-((2-(2,6-dioxopiperidin-3-yl)-1,3-dioxoisoindolin-4-yl)amino)hexyl)-4-methylpiperidine-4-carboxamide] |  |  |  |  | 20 | 21 | 55 | 56 |  |
| CNc1cc(N2CCC3(CC2)CN(c2cc(F)c(CN4CCC(C)(C(=O)NCCCCCCCCNc5cccc6c5C(=O)N(C5CCC(=O)NC5=O)C6=O)CC4)cc2F)CC(=O)N3)ncn1 (stereo not shown) [Compound 5c, 1-(2,5-difluoro-4-(9-(6-(methylamino)pyrimidin-4-yl)-2-oxo-1,4,9-triazaspiro[5.5]undecan-4-yl)benzyl)-N-(8-((2-(2,6-dioxopiperidin-3-yl)-1,3-dioxoisoindolin-4-yl)amino)octyl)-4-methylpiperidine-4-carboxamide] |  |  |  |  | 20 | 24 | 50 | 54 |  |
| CNc1cc(N2CCC3(CC2)CN(c2cc(F)c(CN4CCC(C)(C(=O)NCCCCCCCCCCNc5cccc6c5C(=O)N(C5CCC(=O)NC5=O)C6=O)CC4)cc2F)CC(=O)N3)ncn1 (stereo not shown) [Compound 5d, 1-(2,5-difluoro-4-(9-(6-(methylamino)pyrimidin-4-yl)-2-oxo-1,4,9-triazaspiro[5.5]undecan-4-yl)benzyl)-N-(10-((2-(2,6-dioxopiperidin-3-yl)-1,3-dioxoisoindolin-4-yl)amino)decyl)-4-methylpiperidine-4-carboxamide] |  |  |  |  | 34 | 21 | 26 | 3 |  |

— PMC12615518, “Discovery of CRBN-recruiting PROTAC degraders of the METTL3-METTL14 complex” (Medicinal Chemistry Research, 2025)
